{
  "source": "patent EP4707280A1",
  "about": "“1,4-CINEOLE DERIVATIVE AND INTERMEDIATE THEREOF, HERBICIDE CONTAINING SAID DERIVATIVE AS ACTIVE INGREDIENT, METHOD FOR USING HERBICIDE, AND METHOD FOR PREPARING AGROCHEMICAL COMPOSITION” (HOKKO CHEMICAL INDUSTRY CO., LTD., priority 2023, dated 2024)",
  "format_in_all_cases": "in vivo",
  "key": {"Lindernia pyxidaria [1]": {"test_system": "Lindernia pyxidaria", "assay": "Test Example 1: herbicidal effect test by soil application in paddy rice", "settings": "336 h, 120 g active ingredient per 10 ares, applied immediately after sowing, flooded pots, 14 days after application, read-out: weed inhibition rate", "summary_of_the_method": "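Inhibition rate (%) read 14 days after treatment, duplicate pots. Water-diluted emulsifiable concentrate was applied by dropper at 120 g active ingredient/10 ares right after sowing. Seeds (30 per species, 0–1 cm deep) went into puddled paddy soil kept flooded at about 3 cm in a greenhouse.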"}, "[2]": {"test_system": "Echinochloa crus-galli var. formosensis at the three-leaf stage", "assay": "Comparative Example: herbicidal effect test by application during growth period of paddy rice (three-leaf stage, Table 7)", "settings": "504 h, active ingredient 7.5 g per 10 ares, emulsifiable concentrate applied by dropper to flooded pots, 21 days after chemical application, triplicate, read-out: Weed inhibition rate (%)", "experimental": "As an example, the herbicidal effect on Echinochloa crus-galli var. formosensis at the three-leaf stage was confirmed by the following method, and the results are specifically shown in Table 7 as a comparative example.\nWagner pots with an area of […] were filled with paddy soil, followed by addition of water and incorporation of chemical fertilizer (N:P:K = 16:16:16), after which puddling was performed. After that, 30 seeds of Echinochloa crus-galli var. formosensis were sown at a depth of 0 cm to 1 cm. Immediately after sowing, the pots were flooded and a water depth of approximately 3 cm was maintained. Subsequent management was conducted in a glass greenhouse. When Echinochloa crus-galli var. formosensis reached the three-leaf stage, an emulsifiable concentrate prepared according to Formulation Example 5 using the compound shown below was diluted with water, and a specified amount of the diluted solution was applied by dropper. The amount of the active ingredient to be applied was equivalent to 7.5 g per 10 ares. The test was conducted in triplicate for each chemical concentration group, and the weed inhibition rate (%) was determined 21 days after chemical application using the following formula (Math. 1)."}, "Amaranthus viridis [3]": {"test_system": "Amaranthus viridis", "assay": "Test Example 4: herbicidal effect test by stem and leaf treatment in upland field", "settings": "120 g per 10 ares, sprayed seven days after sowing, upland soil, 14 days after application, read-out: weed inhibition rate", "summary_of_the_method": "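Read-out: weed inhibition rate (%), calculated 14 days post-application, each concentration group in duplicate. Treatment was a spray of diluted emulsifiable concentrate (100 liters per 10 ares; 120 g a.i. per 10 ares) onto pots sown 7 days earlier in alluvial loam.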"}, "Chenopodium album [4]": {"test_system": "Chenopodium album", "assay": "Test Example 4: herbicidal effect test by stem and leaf treatment in upland field", "settings": "120 g per 10 ares, sprayed seven days after sowing, upland soil, 14 days after application, read-out: weed inhibition rate"}, "Chenopodium album [5]": {"test_system": "Chenopodium album", "assay": "Test Example 8: herbicidal effect test by stem and leaf treatment in upland field (low dose)", "settings": "7.5 g per 10 ares, sprayed seven days after sowing, upland soil, 14 days after application, read-out: weed inhibition rate", "summary_of_the_method": "(§1)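 Duplicate alluvial-loam pots (36 cm^2), seeded in the top 1 cm and grown seven days, were sprayed with diluted emulsifiable concentrate at 7.5 g a.i. per 10 ares (100 L per 10 ares). Percent inhibition was assessed at 14 days post-treatment.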"}, "Lindernia pyxidaria [6]": {"test_system": "Lindernia pyxidaria", "assay": "Test Example 5: herbicidal effect test by soil application in paddy rice (low dose)", "settings": "336 h, 7.5 g per 10 ares, applied immediately after sowing, flooded pots, 14 days after application, read-out: weed inhibition rate", "summary_of_the_method": "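Pre-emergence paddy test: seeds sown 0–1 cm (30 each), pots flooded ~3 cm, greenhouse. EC dilution dropped into water right after sowing, 7.5 g a.i./10 a. Duplicate pots; weed inhibition rate (%) by formula, day 14.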"}, "Lindernia pyxidaria [7]": {"test_system": "Lindernia pyxidaria", "assay": "Test Example 6: herbicidal effect test by application during growth period of paddy rice (low dose)", "settings": "7.5 g per 10 ares, applied seven days after sowing, flooded pots, 14 days after application, read-out: weed inhibition rate", "summary_of_the_method": "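Emulsifiable concentrate, water-diluted, dropped onto flooded paddy pots 7 days post-sowing at 7.5 g active ingredient/10 a. Greenhouse-grown weeds; percent inhibition scored at day 14 after treatment.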"}, "Amaranthus viridis [8]": {"test_system": "Amaranthus viridis", "assay": "Test Example 7: herbicidal effect test by soil application in upland field (low dose)", "settings": "7.5 g per 10 ares, sprayed one day after sowing, upland soil, 14 days after application, read-out: weed inhibition rate"}, "Amaranthus viridis [9]": {"test_system": "Amaranthus viridis", "assay": "Test Example 8: herbicidal effect test by stem and leaf treatment in upland field (low dose)", "settings": "7.5 g per 10 ares, sprayed seven days after sowing, upland soil, 14 days after application, read-out: weed inhibition rate", "summary_of_the_method": "as §1"}},
  "data": [
    {"smiles": "CC(C)[C@]12C=C[C@](C)(O1)C(OCc1ccccc1F)C2", "note": "(mixture of isomers) [3-5, (1R,4S,SR)-5-[(2-fluorophenyl)methoxy]-4-methyl-1-isopropyl-7-oxabicyclo[2.2.1]hept-2-ene]", "values": [
      {"measurement": "pest or weed control at 1200 g/ha", "setting": "Lindernia pyxidaria [1]", "result": "≥ 80", "unit": "%"},
      {"measurement": "inhibition at 75 g/ha", "setting": "[2]", "result": 82, "unit": "%"},
      {"measurement": "inhibition at 1200 g/ha", "setting": "Amaranthus viridis [3]", "result": "≥ 80", "unit": "%"},
      {"measurement": "inhibition at 1200 g/ha", "setting": "Chenopodium album [4]", "result": "≥ 80", "unit": "%"},
      {"measurement": "inhibition at 75 g/ha", "setting": "Chenopodium album [5]", "result": "≥ 80", "unit": "%"}
    ]},
    {"smiles": "CC(C)[C@]12C[C@@H](OCc3c(F)cccc3F)[C@](C)(CC1=O)O2", "note": "[2-20, (1R,4S,5R)-5-((2,6-difluorobenzyl)oxy)-1-isopropyl-4-methyl-7-oxabicyclo[2.2.1]heptan-2-one]", "values": [
      {"measurement": "inhibition at 75 g/ha", "setting": "Lindernia pyxidaria [6]", "result": "≥ 80", "unit": "%"},
      {"measurement": "inhibition at 1200 g/ha", "setting": "Amaranthus viridis [3]", "result": "≥ 80", "unit": "%"},
      {"measurement": "inhibition at 75 g/ha", "setting": "Lindernia pyxidaria [7]", "result": "≥ 80", "unit": "%"}
    ]},
    {"smiles": "C=CCO[C@@H]1C[C@]2(C)O[C@@]1(C(C)C)C[C@H]2OCc1ccccc1F", "note": "[1-930, (1S,2R,4R,5R)-2-[(2-fluorophenyl)methoxy]-1-methyl-4-isopropyl-5-prop-2-enoxy-7-oxabicyclo[2.2.1]heptane]", "values": [
      {"measurement": "inhibition at 75 g/ha", "setting": "Lindernia pyxidaria [6]", "result": "≥ 80", "unit": "%"},
      {"measurement": "pest or weed control at 1200 g/ha", "setting": "Lindernia pyxidaria [1]", "result": "≥ 80", "unit": "%"},
      {"measurement": "inhibition at 1200 g/ha", "setting": "Amaranthus viridis [3]", "result": "≥ 80", "unit": "%"},
      {"measurement": "inhibition at 1200 g/ha", "setting": "Chenopodium album [4]", "result": "≥ 80", "unit": "%"},
      {"measurement": "inhibition at 75 g/ha", "setting": "Lindernia pyxidaria [7]", "result": "≥ 80", "unit": "%"},
      {"measurement": "inhibition at 75 g/ha", "setting": "Amaranthus viridis [8]", "result": "≥ 80", "unit": "%"},
      {"measurement": "inhibition at 75 g/ha", "setting": "Amaranthus viridis [9]", "result": "≥ 80", "unit": "%"},
      {"measurement": "inhibition at 75 g/ha", "setting": "Chenopodium album [5]", "result": "≥ 80", "unit": "%"}
    ]},
    {"smiles": "C#CCO[C@@H]1C[C@]2(C)O[C@@]1(C(C)C)C[C@H]2OCc1ccccc1F", "note": "[1-931, (1S,2R,4R,5R)-2-[(2-fluorophenyl)methoxy]-1-methyl-4-isopropyl-5-prop-2-ynoxy-7-oxabicyclo[2.2.1]heptane]", "values": [
      {"measurement": "inhibition at 75 g/ha", "setting": "Lindernia pyxidaria [6]", "result": "≥ 80", "unit": "%"},
      {"measurement": "pest or weed control at 1200 g/ha", "setting": "Lindernia pyxidaria [1]", "result": "≥ 80", "unit": "%"},
      {"measurement": "inhibition at 1200 g/ha", "setting": "Amaranthus viridis [3]", "result": "≥ 80", "unit": "%"},
      {"measurement": "inhibition at 1200 g/ha", "setting": "Chenopodium album [4]", "result": "≥ 80", "unit": "%"},
      {"measurement": "inhibition at 75 g/ha", "setting": "Lindernia pyxidaria [7]", "result": "≥ 80", "unit": "%"},
      {"measurement": "inhibition at 75 g/ha", "setting": "Amaranthus viridis [8]", "result": "≥ 80", "unit": "%"},
      {"measurement": "inhibition at 75 g/ha", "setting": "Amaranthus viridis [9]", "result": "≥ 80", "unit": "%"}
    ]},
    {"smiles": "Cc1ccccc1CO[C@@H]1C[C@]2(C(C)C)O[C@@]1(C)C[C@@H]2F", "note": "[1-2, (1R,2S,4S,5R)-2-fluoro-1-isopropyl-4-methyl-5-((2-methylbenzyl)oxy)-7-oxabicyclo[2.2.1]heptane]", "values": [
      {"measurement": "inhibition at 75 g/ha", "setting": "[2]", "result": 94, "unit": "%"},
      {"measurement": "inhibition at 1200 g/ha", "setting": "Amaranthus viridis [3]", "result": "≥ 80", "unit": "%"},
      {"measurement": "inhibition at 1200 g/ha", "setting": "Chenopodium album [4]", "result": "≥ 80", "unit": "%"},
      {"measurement": "inhibition at 75 g/ha", "setting": "Amaranthus viridis [9]", "result": "≥ 80", "unit": "%"},
      {"measurement": "inhibition at 75 g/ha", "setting": "Chenopodium album [5]", "result": "≥ 80", "unit": "%"}
    ]},
    {"smiles": "CC(C)[C@]12C[C@@H](OCc3ccccc3F)[C@](C)(CC1OCC1CC1)O2", "note": "(mixture of isomers) [1-921, (1S,2R,4R,SR)-5-(cyclopropylmethoxy)-2-[(2-fluorophenyl)methoxy]-1-methyl-4-isopropyl-7-oxabicyclo[2.2.1]heptane]", "values": [
      {"measurement": "inhibition at 75 g/ha", "setting": "Lindernia pyxidaria [6]", "result": "≥ 80", "unit": "%"},
      {"measurement": "pest or weed control at 1200 g/ha", "setting": "Lindernia pyxidaria [1]", "result": "≥ 80", "unit": "%"},
      {"measurement": "inhibition at 1200 g/ha", "setting": "Amaranthus viridis [3]", "result": "≥ 80", "unit": "%"},
      {"measurement": "inhibition at 1200 g/ha", "setting": "Chenopodium album [4]", "result": "≥ 80", "unit": "%"},
      {"measurement": "inhibition at 75 g/ha", "setting": "Lindernia pyxidaria [7]", "result": "≥ 80", "unit": "%"},
      {"measurement": "inhibition at 75 g/ha", "setting": "Amaranthus viridis [8]", "result": "≥ 80", "unit": "%"},
      {"measurement": "inhibition at 75 g/ha", "setting": "Amaranthus viridis [9]", "result": "≥ 80", "unit": "%"},
      {"measurement": "inhibition at 75 g/ha", "setting": "Chenopodium album [5]", "result": "≥ 80", "unit": "%"}
    ]}
  ]
}
